Data: patent US10028992B2, “Methods of treating muscular dystrophy” (BOARD OF REGENTS OF THE NEVADA SYSTEM OF HIGHER EDUCATION …, priority 2012, dated 2018)

Test system: α7 integrin promoter
Assay: muscle cell-based assay: α7βgal+/− myoblasts/myotubes, LacZ reporter, β-galactosidase cleavage of FDG
Set-up: species or system mouse; Results in α7+/− β-galactosidase assay: scale not given here
Settings: for Results in a α7+/− β-galactosidase assay, Myotubes, 0.5 uM: compound at 0.5 uM; for Results in a α7+/− β-galactosidase assay, Myotubes, 1 uM: compound at 1 uM; for Results in a α7+/− β-galactosidase assay, Myotubes, 5 uM: compound at 5 uM; for Results in a α7+/− β-galactosidase assay, Myotubes, 10 uM: compound at 10 uM; for Results in a α7+/− β-galactosidase assay, Myotubes, 20 uM: compound at 20 uM; for Results in a α7+/− β-galactosidase assay, Myotubes, 40 uM: compound at 40 uM; for AC50: log of AC50, given with negative sign, unit of AC50 not given, read-out: Fit Log AC50 (converted); for Fit Curve Class: key not given; for Emax: read-out: Max Response [%]; for Results in α7+/− β-galactosidase assay: Myoblasts
Method in brief: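 Primary α7βgal+/− mouse myoblasts (LacZ knocked into α7 integrin exon 1, promoter retained), differentiated; promoter activity read as β-galactosidase conversion of non-fluorescent FDG to fluorescein. Hits followed by dose-response, western analysis and myostatin counterscreen.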

[1] = Table 12, fitted activity at zero concentration
[2] = Table 12 Compound data, concentration-response curve fit

Structure (SMILES) | Results in a α7+/− β-galactosidase assay, Myotubes, 0.5 uM | Results in a α7+/− β-galactosidase assay, Myotubes, 1 uM | Results in a α7+/− β-galactosidase assay, Myotubes, 5 uM | Results in a α7+/− β-galactosidase assay, Myotubes, 10 uM | Results in a α7+/− β-galactosidase assay, Myotubes, 20 uM | Results in a α7+/− β-galactosidase assay, Myotubes, 40 uM | other results
CCC(C)C(CC)NC(=O)CSc1nnc(COc2ccc(Cl)cc2)o1 (stereo not drawn) [drawing 374] | 0.09087 | 0.07758 | −0.09861 | −0.1776 | −0.01998 | −0.2485 | 
CC1(C)CC(O)=C/C(=N\c2ccc(C(=O)O)c(O)c2)C1 [Compound 99] |  |  |  |  |  |  | AC50 (Mus musculus, Table 12): 10 µM; Fit HillSlope (Table 12, curve fit): 2.1211; Fit Zero Activity [%] [1]: 0%; Fit Curve Class (Table 12): 2.1; Score [2]: 43
O=C(Nc1ccc(Cl)cc1N1CCOCC1)C1CCCCC1 [Compound 53] |  |  |  |  |  |  | Activity at 0.307 μM [%] **: 0%; AC50 (Mus musculus, Table 12): 7.08 µM; Emax (Mus musculus): 119%; Fit HillSlope (Table 12, curve fit): 0.8; Fit Zero Activity [%] [1]: −11.267%; Fit Curve Class (Table 12): 2.1; Score [2]: 45
CCC(=O)c1ccc(OCC(O)CN2CCOC(C)C2)cc1.O=C(O)C(=O)O (stereo not drawn) [drawing 403] | 0.08149 | 0.03201 | −0.09666 | −0.1187 | 0.08332 | 0.1461 | 
CCC(CC)C(=O)Nc1c(C(=O)N2CCN(c3ccccc3)CC2)oc2ccccc12 [drawing 479] | −0.04763 | −0.04983 | −0.2904 | −0.3853 | −0.08708 | −0.02043 | 
Cc1ccc(NP(=O)(Nc2ccc(C)cc2)Nc2ccc(C)cc2)cc1 [Compound 10] |  |  |  |  |  |  | Activity at 0.307 μM [%] **: 0%; AC50 (Mus musculus, Table 12): 3.16 µM; Emax (Mus musculus): 102%; Fit HillSlope (Table 12, curve fit): 2.8473; Fit Zero Activity [%] [1]: 0%; Fit Curve Class (Table 12): 1.1; Score [2]: 85
CCCS(=O)(=O)c1nc(S(=O)(=O)c2ccc(C)cc2)c(N2CCCC2)s1 [drawing 364] | 0.01021 | 0.05992 | −0.01197 | −0.0108 | −0.2345 | −0.3321 | 
COc1cc(NC(=O)C2C3C=CC(C3)C2C(=O)O)ccc1NC(=O)c1ccccc1 (stereo not drawn) [Compound 142] |  |  |  |  |  |  | EC50 (Mus musculus, given as log AC50 (negative values), read-out: Fit LogAC50 (converted)): 8.91 µM; Score (Table 12 compound data): 42; Fit Curve Class (curve class number): 2.1; Fit HillSlope (curve fit): 2.4064; Fit Zero Activity [%] (curve fit, activity at zero concentration): −18.7775%
COc1ccc(CNC(=O)C2CCCN(S(=O)(=O)c3c(C)noc3/C=C/N(C)C)C2)cc1 (stereo not drawn) [drawing 371] | 0.1862 | 0.2675 | −0.1068 | −0.1252 | −0.1996 | −0.2682 | 
CN(/C(=N/S(=O)(=O)c1cccs1)c1ccccc1)c1ccccc1 [drawing 381] | −0.07971 | 0.1809 | 0.01531 | −0.02849 | 0.1022 | −0.209 | 
CCCCNc1nnc(Cc2ccc(Cl)cc2)c(O)n1 [drawing 543] |  |  |  |  |  |  | Results in α7+/− β-galactosidase assay (0.5 uM): 0.1426; Results in α7+/− β-galactosidase assay (1 uM): 0.2067; Results in α7+/− β-galactosidase assay (5 uM): −0.06804; Results in α7+/− β-galactosidase assay (10 uM): −0.2224; Results in α7+/− β-galactosidase assay (20 uM): −0.259; Results in α7+/− β-galactosidase assay (40 uM): −0.2813
CCN(CC)C(=O)c1sc2nc(-c3ccc(OC)cc3)cn2c1C [drawing 620] |  |  |  |  |  |  | Results in α7+/− β-galactosidase assay (0.5 uM): −0.00349; Results in α7+/− β-galactosidase assay (1 uM): −0.01981; Results in α7+/− β-galactosidase assay (5 uM): −0.06604; Results in α7+/− β-galactosidase assay (10 uM): −0.2175; Results in α7+/− β-galactosidase assay (20 uM): −0.4369; Results in α7+/− β-galactosidase assay (40 uM): −0.6089
COc1ccc2c(c1)/C(=C\c1cccc(/C=C3/C(=O)Nc4ccc(OC)cc43)n1)C(=O)N2 [drawing 651] |  |  |  |  |  |  | Results in α7+/− β-galactosidase assay (0.5 uM): −0.2196; Results in α7+/− β-galactosidase assay (1 uM): −0.4455; Results in α7+/− β-galactosidase assay (5 uM): −0.825; Results in α7+/− β-galactosidase assay (10 uM): −0.8112; Results in α7+/− β-galactosidase assay (20 uM): −0.9441; Results in α7+/− β-galactosidase assay (40 uM): −0.9511
c1ccc(-c2nn[nH]n2)nc1 [drawing 408] | −0.05084 | −0.03177 | −0.024 | −0.07161 | 0.03157 | 0.04635 | 
